Laboratory results taken from US20230414509A1, “HYDROPHOBIC DRUGS IN ORGANIC CORE HIGH DENSITY LIPOPROTEIN (HDL) NANOPARTICLES” (NORTHWESTERN UNIVERSITY, priority 2020, published 2023).

Key:
U266B1 cells (myeloma) = assay: Cytotoxicity IC50, MTS assay, U266B1 cells; assay type: cell-based; details: U266B1 cells (SR-B1 negative), 72 hours after treatment, read-out: IC-50 values (in nM), U266B1
Protocol: (§1) Specifically, the F7-loaded HDL NPs were tested for cytoxicity against two CTCL cell lines (HH and Hut78), a clear cell renal cell carcinoma cell line (786-O), an anaplastic large cell lymphoma (ALCL) cell line (SR-786), a breast adenocarcinoma cell line (MDA MB 231), a T-cell lymphoma cell line (Jurkat), a myeloma cell line (U266B1), and six prostate cancer cell lines (PC-3, Du-145, CWRR1 WT (wild-type), CWRR1 EnzR (Enzalutamide resistant), LnCap WT (wild type), and LnCap EnzR (Enzalutamide resistant)). The HH and HuT78 cell lines are SR-B1 positive and express p38γ. The SR-786, 786-O, and MDA MB 231 cell lines are also known to be SR-B1 positive. […] The PC-3 and Du-145 cell lines are SR-B1 positive, androgen receptor negative and PTEN null. The CWRR1 WT cell line is SR-B1 positive, androgen receptor positive and PTEN wild type. The CWRR1 EnzR, which is also SR-B1 positive, androgen receptor positive and PTEN wild type, is a prostate cancer cell line derived from patient with castration recurrent disease that is resistant to enzalutamide (a commonly used therapy for castration-resistant prostate cancer patients). The LnCap WT cell line is SR-B1 positive, androgen receptor positive and PTEN null. The LnCap EnzR, which is also SR-B1 positive, androgen receptor positive and PTEN null, is a prostate cancer cell line derived from a lymph node metastasis that is resistant to enzalutamide. […]

[1] = tested on: HH cell line (SR-B1 positive); assay: 2 hr pulse treatment, MTS viability, SR-B1 positive HH cell line; assay type: cell-based; details: free F7 250 nM or 2.5 μM for 2 hrs, washed, 72 hours, MTS assay
Protocol: (§2) Following treatment, the cells were washed with fresh media and plated into 96-well plates. The cells were then incubated for 72 hours prior to viability assay (MTS assay).

[2] = tested on: HH cells (cutaneous T cell lymphoma); assay: Cytotoxicity IC50, MTS assay, HH cells; assay type: cell-based; details: Homo sapiens, 72 hours after treatment, read-out: IC-50 values (in nM), HH
Protocol: as §1

[3] = tested on: ACHN cells (renal cancer); assay: Cytotoxicity IC50 in renal cancer cell line ACHN; assay type: cell-based; details: Homo sapiens
Protocol: (§3) A database analysis was performed and a survival curve for the renal cancer was found showing a separation (p=0.000084) among summarized 877 renal cancer patients by p38γ gene expression level (high vs low). […] All 8 renal cancer cell lines have higher p38γ protein expression level than that of normal HK2 renal cells by western blot experiments (FIG. 3B).

[4] = tested on: U266B1 cell line (SR-B1 negative); assay: 2 hr pulse treatment, MTS viability, SR-B1 negative U266B1 cell line; assay type: cell-based; details: free F7 250 nM or 2.5 μM for 2 hrs, washed, 72 hours, MTS assay
Protocol: as §2

[5] = tested on: CWRR1 WT cells (prostate cancer); assay: Cytotoxicity IC50, MTS assay, CWRR1 WT cells; assay type: cell-based; details: 72 hours after treatment, read-out: IC-50 values (in nM), CWRR1 WT
Protocol: as §1

[6] = tested on: MDA MB 231 cells (breast adenocarcinoma); assay: Cytotoxicity IC50, MTS assay, MDA MB 231 cells; assay type: cell-based; details: Homo sapiens, 72 hours after treatment, read-out: IC-50 values (in nM), MDA MB 231
Protocol: as §1

[7] = tested on: LnCap WT cells (prostate cancer); assay: Cytotoxicity IC50, MTS assay, LnCap WT cells; assay type: cell-based; details: Homo sapiens, 72 hours after treatment, read-out: IC-50 values (in nM), LnCap WT
Protocol: as §1

[8] = tested on: CWRR1 EnzR cells (prostate cancer, Enzalutamide resistant); assay: Cytotoxicity IC50, MTS assay, CWRR1 EnzR cells; assay type: cell-based; details: 72 hours after treatment, read-out: IC-50 values (in nM), CWRR1 EnzR
Protocol: as §1

780 cells (renal cancer) = assay: Cytotoxicity IC50 in renal cancer cell line 780; assay type: cell-based
Protocol: as §3

[9] = tested on: Du-145 cells (prostate cancer); assay: Cytotoxicity IC50, MTS assay, Du-145 cells; assay type: cell-based; details: Homo sapiens, 72 hours after treatment, read-out: IC-50 values (in nM), Du-145
Protocol: as §1

Hut78 cells = assay: Cytotoxic impact of F7 on Hut78 cells (screening); assay type: cell-based; details: Homo sapiens
Description: Cutaneous T cell lymphoma (CTCL) is a disfiguring and aggressive cancer. For patients with advanced disease, current therapies are inadequate, and outcome is poor. Incomplete understanding of CTCL molecular regulators has limited development of effective targeted therapies. One candidate regulator is p38gamma (p38γ), a mitogen-activated protein kinase downstream from the T cell receptor that is crucial for T cell activity and growth. […] In addition, only p38γ has been identified as essential protein for CTCL growth among the four p38 isoforms by gene knockdown experiments, which makes p38γ an ideal target for the therapeutic drug development in this particular T cell lymphoma.

[10] = tested on: PC-3 cells (prostate cancer); assay: Cytotoxicity IC50, MTS assay, PC-3 cells; assay type: cell-based; details: Homo sapiens, 72 hours after treatment, read-out: IC-50 values (in nM), PC-3
Protocol: as §1

[11] = tested on: SR-786 cells (anaplastic large cell lymphoma); assay: Cytotoxicity IC50, MTS assay, SR-786 cells; assay type: cell-based; details: 72 hours after treatment, read-out: IC-50 values (in nM), SR-786
Protocol: as §1

[12] = tested on: Jurkat cells (T-cell lymphoma); assay: Cytotoxicity IC50, MTS assay, Jurkat cells; assay type: cell-based; details: Homo sapiens, Jurkat cells (SR-B1 negative), 72 hours after treatment, read-out: IC-50 values (in nM), Jurkat
Protocol: as §1

HepG2 cells = assay: Cell-based toxicity screen, HepG2 cells, MTS viability; details: F7 1 μM for 2 hrs, washed, 72 hours, MTS assay
[13] = tested on: 786-O cells (clear cell renal cell carcinoma); assay: Cytotoxicity IC50, MTS assay, 786-O cells; assay type: cell-based; details: Homo sapiens, 786-0, 72 hours after treatment, read-out: IC-50 values (in nM), 786-O
Protocol: as §1

[14] = tested on: LnCap EnzR cells (prostate cancer, Enzalutamide resistant); assay: Cytotoxicity IC50, MTS assay, LnCap EnzR cells; assay type: cell-based; details: Homo sapiens, 72 hours after treatment, read-out: IC-50 values (in nM), LnCap EnzR
Protocol: as §1

[15] = tested on: HuT78 cells (cutaneous T cell lymphoma); assay: Cytotoxicity IC50, MTS assay, HuT78 cells; assay type: cell-based; details: Homo sapiens, 72 hours after treatment, read-out: IC-50 values (in nM), HuT78
Protocol: as §1

Cc1ccc([N+](=O)[O-])cc1S(=O)(=O)N(C)/N=C/c1cnc2ccc(Br)cn12.Cl [F7, PIK75] was tested, and the IC50 (U266B1 cells (myeloma)) was 44.1 nM, the “cytotoxicity, HH cell line, free F7” value [1] was “unable to cause cytotoxicity” and the IC50 [2] was 41.3 nM. The IC50 [3] was 17 nM, the “cytotoxicity, U266B1 cell line, free F7” value [4] was “unable to cause cytotoxicity” and the IC50 [5] was 15.9 nM. The IC50 [6] was 688 nM, the IC50 [7] was 53 nM and the IC50 [8] was 24.7 nM. The IC50 (780 cells (renal cancer)) was 33 nM, the IC50 [9] was 84.7 nM and the IC50 (Hut78 cells) was 33 nM. For the same molecule, the IC50 [10] was 28.1 nM, the IC50 [11] was 12.6 nM and the IC50 [12] was 116 nM. For the same molecule, the “cytotoxicity, HepG2 cells, free F7” value (HepG2 cells) was “mild levels of cytotoxicity”, the IC50 [13] was 283 nM and the IC50 [14] was 75.5 nM. It also gave an IC50 [15] of 45.6 nM.
